For assay [1], the target named is T1, TRPML1 (Homo sapiens, UniProt Q9GZU1).
T1 construct: expressed in transfected cells; host or cells: HEK T-REx cells stably expressing GCaMP6f and TRPML1
The assay can be described thus: Cellular TRPML1 assay (FLIPR, GCaMP6f calcium read-out). Format: cell-based. The method, boiled down: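 HEK T-REx cells stably expressing TRPML1 and GCaMP6f, seeded 24 h before in Optimem + 0.5% FBS. After ~10 min pre-incubation at room temperature, compounds in Ca2+-free Tyrode's buffer were injected on FLIPR Tetra (final DMSO 0.5%). Calcium fluorescence kinetics followed for 300 s.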

Assay [2] deals with TFEB. The assay can be described thus: TFEB translocation assay (TFEB reporter in U2OS cells, imaging). The format is cell-based. The conditions noted are these: Homo sapiens; U2OS cell line with TFEB reporter, 2 hours incubation, nucleus to cytoplasm ratio, normalized to Torin-1; read-out: TFEB Translocation pEC50 (converted). How it is done:
Example B: TFEB Translocation Assay
Reporter TFEB: the reporter is fused to a sequence of monomeric red fluorescent protein.
The reporter TFEB have been stably expressed in U2OS cell line and used as read-out.
Experiments were performed in 384 MTP well format. Cells were seeded in 384-w at a density of 4000 cells/well in 20 μl/well complete growth medium without antibiotics. Twenty-four hours later, cells were treated with compounds and incubated for further 2 hours. Then the cells were imaged and assayed for the response to various compounds using the reporter for TFEB expressed in the cells as readout.
The experiments were performed in a 384-well format according to the following procedure: • 24 h after seeding, cell culture medium was carefully removed and replaced with 20 μl of Opti-MEM (30′ incubation at 37° C. before compound addition) • Then, cells were incubated with compounds diluted in Opti-MEM+0.015% Tween 80 at the desired concentration, with the reference molecule (agonist) Torin-1 at a top concentration of 1 μM (max signal), and with the other reference molecule (agonist) MLSA-5 at top concentration of 20 μM for 2 hours at 37° C. and 5% CO2. The final percentage of DMSO was 0.5% in all the conditions. • Staining of the nuclei was obtained by incubating the cells with 24 μM/well of Hoechst 3342 in standard Tyrode's buffer for 15 min at RT • Then the cells were fixed with PFA 4% for 30 min at RT • After three washes with standard Tyrode's buffer, samples were acquired by recording two fluorescence emission channels (DS-red and blue) at 20× magnification and with at least 3 fields of view per well in an Operetta CLS microscope (PerkinElmer). • Image analysis was performed by using Harmony software (PerkinElmer). The image analysis involved the following steps: flat-field illumination correction, nuclei segmentation, cytoplasm segmentation and calculation of intensity fluorescence in the cytosol and nuclei compartments. Measurements of signal intensity ratio (nucleus to cytoplasm) was used to obtain information on the effects of compounds on the TFEB translocation. • Data from image analysis measurements were finally loaded and analyzed for normalization and fitting procedures in Genedata Screener© software. Data Analysis
Feature: Mean translocation ratio (mean/well)
Data normalization: Stimulator—Neutral control
The GeneData Screener method we have used, normalizes the median of the Stimulator control wells (Torin-1) to 100% and the median of the Neutral control wells (DMSO) to 0% Activity[%]=100*(x−<Min>)/(<“Max”>−<Min>)

Where [3] appears, read: HEKT-REx/GCaMP6f/TRPML1 cells, FLIPR TETRA, kinetic response over 300 seconds, read-out: TRPML1 FLIPR pEC50 (converted).

Data on 10 molecules can be found in patent US12098145B2 (Libra Therapeutics, Inc., priority 2022, dated 2024).

The structures appear in SMILES notation. Where two headings read alike, the source gives them in different places.

T1 sequence (Q9GZU1 whole entry): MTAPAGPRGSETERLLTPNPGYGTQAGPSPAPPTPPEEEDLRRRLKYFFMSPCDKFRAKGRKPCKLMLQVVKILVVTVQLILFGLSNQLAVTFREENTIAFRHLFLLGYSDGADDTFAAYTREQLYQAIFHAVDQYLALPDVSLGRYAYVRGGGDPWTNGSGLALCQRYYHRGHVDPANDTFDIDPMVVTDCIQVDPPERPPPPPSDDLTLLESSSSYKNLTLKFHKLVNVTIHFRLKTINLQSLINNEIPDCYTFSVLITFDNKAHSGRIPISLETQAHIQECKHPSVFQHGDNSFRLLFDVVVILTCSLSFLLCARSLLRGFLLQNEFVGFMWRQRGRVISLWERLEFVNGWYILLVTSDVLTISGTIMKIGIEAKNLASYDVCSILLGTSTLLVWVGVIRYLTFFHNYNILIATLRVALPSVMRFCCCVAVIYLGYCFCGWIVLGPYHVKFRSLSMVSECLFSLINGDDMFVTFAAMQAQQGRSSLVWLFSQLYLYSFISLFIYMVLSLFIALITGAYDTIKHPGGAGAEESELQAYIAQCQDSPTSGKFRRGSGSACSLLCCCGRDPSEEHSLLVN

With `O=C(Nc1ccc(OC2CCCCC2(F)F)c(F)c1)c1nc(N2CCC3(COC3)C2)oc1CC(F)(F)F` (centres unmarked) [Example 68, N-(4-((2,2-difluorocyclohexyl)oxy)-3-fluorophenyl)-2-(2-oxa-6-azaspiro[3.4]octan-6-yl)-5-(2,2,2-trifluoroethyl)oxazole-4-carboxamide], the EC50 in assay [1] (setting [3]) and in assay [2] was 0.01 to 1 µM throughout.
Consider `O=C(Nc1ccc(O[C@@H]2C[C@@H]3C[C@@H]3C2)c(F)c1)c1nc(N2CCC3(COC3)C2)oc1CC(F)(F)F` [Example 73, N-(4-{cis-bicyclo[3.1.0]hexan-3-yloxy}-3-fluorophenyl)-2-{2-oxa-6-azaspiro[3.4]octan-6-yl}-5-(2,2,2-trifluoroethyl)oxazole-4-carboxamide], for which the EC50 in assay [1] (setting [3]) and in assay [2] was 0.01 to 1 µM in each case.
Turning to `O=C(Nc1ccc(O[C@@H]2C[C@@H]3C[C@@H]3C2)c(F)c1)c1nc(N2CCCC2)oc1CC(F)(F)F` [Example 74, N-(4-{cis-bicyclo[3.1.0]hexan-3-yloxy}-3-fluorophenyl)-2-(pyrrolidin-1-yl)-5-(2,2,2-trifluoroethyl)oxazole-4-carboxamide], the EC50 in assay [1] (setting [3]) and in assay [2] was 0.01 to 1 µM in each case.
Regarding `O=C(Nc1ccc(O[C@@H]2C[C@@H]3C[C@@H]3C2)c(F)c1)c1nc(N2CCC3(CC3)C2)oc1CC(F)(F)F` [Example 75, 2-{5-azaspiro[2.4]heptan-5-yl}-N-(4-{cis-bicyclo[3.1.0]hexan-3-yloxy}-3-fluorophenyl)-5-(2,2,2-trifluoroethyl)oxazole-4-carboxamide], the EC50 in assay [1] (setting [3]) and in assay [2] was 0.01 to 1 µM throughout.
With `O=C(Nc1ccc(OC2CCCCC2(F)F)c(F)c1)c1nc(N2CCCC2)oc1CC(F)(F)F` (centres unmarked) [Example 76, N-{4-[(2,2-difluorocyclohexyl)oxy]-3-fluorophenyl}-2-(pyrrolidin-1-yl)-5-(2,2,2-trifluoroethyl)oxazole-4-carboxamide], the EC50 in assay [1] (setting [3]) and in assay [2] was 0.01 to 1 µM each time.
Turning to `O=C(Nc1ccc(N2CCC(F)(F)CC2)c(F)c1)c1nc(N2CC3(C2)CC(F)(F)C3)oc1CC(F)(F)F` [Example 77, 2-{6,6-difluoro-2-azaspiro[3.3]heptan-2-yl}-N-[4-(4,4-difluoropiperidin-1-yl)-3-fluorophenyl]-5-(2,2,2-trifluoroethyl)oxazole-4-carboxamide], the EC50 in assay [1] (setting [3]) and in assay [2] was 1 to 10 µM throughout.
Consider `O=C(Nc1ccc(N2CCCCC2)c(C(F)(F)F)c1)c1nc(N2CC3(C2)CC(F)(F)C3)oc1CC(F)(F)F` [Example 78, 2-{6,6-difluoro-2-azaspiro[3.3]heptan-2-yl}-N-[4-(piperidin-1-yl)-3-(trifluoromethyl)phenyl]-5-(2,2,2-trifluoroethyl)oxazole-4-carboxamide], for which the EC50 in assay [1] (setting [3]) and in assay [2] was 1 to 10 µM in each case.
Consider `CN(c1ccc(NC(=O)c2nc(N3CCCC3)oc2CC(F)(F)F)cc1F)C1CCCC1(F)F` (centres unmarked) [Example 82, N-{4-[(2,2-difluorocyclopentyl)(methyl)amino]-3-fluorophenyl}-2-(pyrrolidin-1-yl)-5-(2,2,2-trifluoroethyl)oxazole-4-carboxamide], for which the EC50 in assay [1] (setting [3]) is 1 to 10 µM; in assay [2] it was 0.01 to 1 µM.
Consider `O=C(Nc1ccc(N2C3CCCC2C3)c(F)c1)c1nc(N2CCCC2)oc1CC(F)(F)F` [Example 83, N-(4-{6-azabicyclo[3.1.1]heptan-6-yl}-3-fluorophenyl)-2-(pyrrolidin-1-yl)-5-(2,2,2-trifluoroethyl)oxazole-4-carboxamide], for which the EC50 in assay [1] and in assay [2] was 0.01 to 1 µM in each case.
On to `O=C(Nc1ccc(N2CCCCC2)c(O)c1)c1nc(N2CCCC2)oc1CC(F)(F)F` [Example 84, N-(3-hydroxy-4-(piperidin-1-yl)phenyl)-2-(pyrrolidin-1-yl)-5-(2,2,2-trifluoroethyl)oxazole-4-carboxamide], for which the EC50 in assay [1] (setting [3]) was 1 to 10 µM; in assay [2], 10 to 100 µM.
